Reference: patent publication US20110055943A1, “NOVEL THERAPEUTIC TARGETS IN INFLAMMATORY BOWEL DISEASE” (SALIX PHARMACEUTICALS, LTD., priority 2007, published 2011)

Assays:
[1] = Serum pharmacokinetics of RIF and RIFax in mice (p.o., i.p., i.v.; LC-MS/MS); format: in vivo
Experimental: The maximum concentration in serum (Cmax) was obtained from the original data. […] Intestinal contents were weighted, and homogenized in methanol (100 mg/ml). The homogenate was centrifuged at 14,000 rpm for 10 min at 4° C.
The mass spectrometer was operated in the turbo ion spray mode with positive ion detection. The turbo ion spray temperature was maintained at 300° C., and a voltage of 4.8 kV was applied to the sprayer needle. N2 was used as the turbo ion spray and nebulizing gas.

CYP3A4 [2] = settings: human hepatocytes; cited from earlier work
CYP3A = assay: Pharmacokinetics of MDZ in hPXR mice pretreated with RIFax; settings: hPXR mice, RIFax 10 mg/kg/day 3 days, MDZ 2.5 mg/kg oral
Experimental: Blood samples were collected from suborbital veins using heparinized tubes at pre-dose, 5, 10, 20, 30, 60, and 90 min after administration of MDZ. Serum was separated by centrifugation at 8,000 g for 10 min. For MDZ and 1′-OH-MDZ extraction, 50 μl of serum was mixed with 150 μl of phosphate-buffered saline, 200 μl of ethyl acetate, and 200 μl of methyl t-butyl ether. The mixture was centrifuged at 3,000 rpm for 5 min at 4° C. The organic layer was then transferred to a new tube, dried with N2, and reconstituted in 100 μl of 70% aqueous methanol and 30% H2O containing 0.1% formic acid. […] Pharmacokinetic parameters for MDZ and 1′-OH-MDZ were estimated from the plasma concentration-time data by a non-compartmental approach using WinNonlin (Pharsight, Mountain View, Calif.). The area under the serum concentration-time curve (AUC0-90 min) was calculated by the trapezoidal rule. The maximum concentration in serum (Cmax) and its corresponding time (Tmax) were obtained from the original data.

[3] = tested on: PXR target genes (CYP3A11, GSTA1, MRP2, OATP2); assay: qPCR analysis of PXR target genes in WT mice; format: in vivo, wild-type (WT) mice
[4] = tested on: PXR target genes (CYP3A11, GSTA1, MRP2, OATP2); assay: qPCR analysis of PXR target genes in Pxr-null mice; format: in vivo
CYP3A4 [5] = settings: two clinical studies; cited from earlier work
human PXR = molecular target: T1, human PXR (Homo sapiens, UniProt O75469); assay: Cell-based reporter assay, DPX2 (hepG2) cell line, luciferase; settings: for increase in luciferase activity vs DMSO control: 24 h, DPX2 cells
T1 construct: host or cells: DPX2 (HepG2 derivative)
T1 sequence (O75469 1-434): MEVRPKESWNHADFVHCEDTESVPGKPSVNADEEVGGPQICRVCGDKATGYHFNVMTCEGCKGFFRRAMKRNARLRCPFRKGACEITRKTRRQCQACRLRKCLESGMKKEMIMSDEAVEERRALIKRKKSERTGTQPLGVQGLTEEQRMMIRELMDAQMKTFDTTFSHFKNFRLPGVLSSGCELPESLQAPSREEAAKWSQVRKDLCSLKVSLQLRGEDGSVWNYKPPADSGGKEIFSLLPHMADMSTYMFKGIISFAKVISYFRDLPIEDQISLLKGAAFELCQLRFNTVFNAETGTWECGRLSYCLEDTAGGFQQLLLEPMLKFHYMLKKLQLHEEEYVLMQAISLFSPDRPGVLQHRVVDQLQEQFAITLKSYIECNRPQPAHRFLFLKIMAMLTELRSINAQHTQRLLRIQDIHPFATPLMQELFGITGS
Experimental: A hepG2 cell line (DPX2) with stable expression of recombinant human PXR and a PXR-response element cloned in a luciferase vector was obtained from Puracyp Inc. (Carlsbad, Calif.). […] The cells were seeded according to the distributor's instruction. […] For cell-based reporter assay of nuclear receptors CAR, PPARα, PPARγ, and FXR, HCT116 cells were plated on 24-well plates (5×10^4 cells/well, cultured in DMEM containing 10% FBS), and transfected with the various expression vectors using Fugene transfection reagent (Roche, Indianapolis, Ind.). […] The mouse FXR vector was provided by Dr Christopher J. Sinal. […] A standard dual luciferase assay was used and normalized to a cotransfected control reporter (Promega, Madison, Wis.). Each in vitro assay was repeated at least three times.

[6] = WT mice, small intestine, 25 mg/kg/day p.o. 3 days
[7] = small intestine, 25 mg/kg/day p.o. 3 days

## COC1/C=C/OC2(C)Oc3c(C)c(O)c4c(O)c(c5c(nc6cc(C)ccn65)c4c3C2=O)NC(=O)/C(C)=C\C=C\C(C)C(O)C(C)C(O)C(C)C(OC(C)=O)C1C (stereo not drawn) [RIFax, 4-Deoxy-4′-methylpyrido[1′,2′-1,2]imidazo[5,4-c]rifamycin SV]
[1]; mice, 10 mg/kg i.v.
  AUC compared with RIF: -low
[1]; mouse, in vivo, iv, 10 mg/kg
  T1/2 compared with RIF: ultra-short
[1]; mouse, serum, mice, single oral dose 10 mg/kg, read-out: Cmax of serum
  Cmax: 40 nM
CYP3A4 [2]
  CYP3A4 in a human hepatocyte model: induction
CYP3A
  Tmax of 1′-OH-MDZ in RIFax pretreated mice vs control group: significantly shorter
[3]; [6]
  Intestinal CYP3A11 expression: inhibited
  Intestinal GSTA1 mRNA increase: 87%
  Intestinal OATP2 mRNA: no significant induction
  intestinal MRP2 mRNA: significantly suppressed
[3]; wild-type mice, liver, oral treatment
  effect on hepatic PXR target genes: no significant effect
[4]; liver, oral treatment
  effect on hepatic PXR target genes: no significant effect
[4]; [7]
  Intestinal CYP3A11 expression: no significant change
  Intestinal GSTA1 mRNA increase: 74%
  Intestinal OATP2 mRNA: no significant induction
  intestinal MRP2 mRNA: no change
CYP3A4 [5]
  effect on intestinal or hepatic CYP3A4: no significant effect
  effect on the pharmacokinetics of MDZ and of ethinyl estradiol and norgestimate: did not alter
Human PXR; 1 μM
  increase in luciferase activity vs DMSO control: 2.1 fold
Human PXR; 10 μM
  increase in luciferase activity vs DMSO control: 6.7 fold
Human PXR; 100 μM
  increase in luciferase activity vs DMSO control: 25.2 fold
Human PXR; DPX2 cell line, read-out: EC50 for activation of hPXR
  EC50: ~20 µM
